According to patent US6413948B1, “Pharmaceutical compositions and methods of effecting a neuronal activity in an animal using naaladase inhibitors” (Guilford Pharmaceuticals Inc., priority 1996, dated 2002):

Columns and labels:
cortical cell cultures = assay: In vitro assay of NAALADase inhibitors on toxicity of NAAG; format: cell-based, rats; conditions: inhibitor 1 μM
Procedure: Dissociated cortical cell cultures are prepared using the papain-dissociation method of Heuttner and Baughman (1986) as modified by Murphy and Baraban (1990). See TABLE VII for the Dissociated Culture Protocol as used herein. Fetuses of embryonic day 17 are removed from timed pregnancy rats (Harlan Sprague Dawley). The cortex is rapidly dissected out in Dulbecco's phosphate-buffered saline, stripped of meninges, and incubated in a papain solution for 15 minutes at 37° C. The tissue is then mechanically triturated and pelleted at 500 g (1000-2000 rpm on swinging bucket Beckman). The pellet is resuspended in a DNAase solution, triturated with a 10 ml pipette ×15-20, layered over a “10×10” solution containing albumin and trypsin inhibitor (see TABLE VII for an example of a “10×10” solution), repelleted, and resuspended in a plating medium containing 10% fetal bovine serum (HyClone A-1111-L), 5% heat-inactivated Equine serum (HyClone A-3311-L), and […] modified Earle's basal medium (MEM) (Gibco 51200-020) with high glucose (4.5 g/L), and 1 g/L NaHCO3. Each 24-well plate is pretreated with poly-D-lysine (0.5 ml/well of 10 μg/ml) for 1 h and rinsed with water before plating. Cultures are plated at 2.5×10^6 cells/ml with each well of a 24 well plate receiving 500 μl/well. Alternatively, 35 mm dishes can be plated at 2 ml/dish, 6 well plates at 2 ml/well, or 12 well plates at 1 ml/well. After plating, 50% of the medium is changed every 3-4 days with growth serum containing 5% heat-inactivated Equine serum (HyClone A3111-L), 95% modified Earle's basal medium (MEM)(Gibco 51200-020), and 1% L-Glutamine (Gibco 25030-081). Experiments are performed after 21 days in cultures. Cultures are maintained in a 5% CO2 atmosphere at 37° C. These methodologies are described in further detail below in the TABLE VII.
At the end of exposure, the cells are washed once with HEPES buffered saline solution and then replaced with serum free modified Earle's basal medium. The cultures are then returned to the CO2 incubator for 24 hour recovery.
Release of the cytosolic enzyme lactate dehydrogenase (LDH), a standard measure of cell lysis, is used to quantify injury (Koh and Choi, 1987). LDH-activity measurements are normalized to control for variability between culture preparations (Koh and Choi, 1987). […] This control measurement is subtracted from each experimental point. […] Only main effects of NAALADase inhibitors are considered; interactions between dose and condition are not examined statistically.

[1] = test system: mouse sciatic nerve following cryolesion; assay: In vivo assay on myelin formation following sciatic nerve cryolesion; set-up: species or system mice; conditions: silicone implants, approximately 2.5 μg/day, 15 days after surgery
Procedure: Cryolesion of the mouse sciatic nerve was performed according to Koenig et al., Science, Vol. 268, pp. 1500-1503 (June 1995). In brief, each mouse was anesthetized and its sciatic nerve was exposed in the upper thigh and cryolesioned using a copper cryode (diameter=0.5 mm) that was dipped in liquid nitrogen and repeatedly applied to the upper part of the nerve. The extent of the lesion was approximately 1 mm.
Fifteen days after surgery, the mice were sacrificed and their sciatic nerve segments were collected and processed for light microscopy and TEM analysis. Randomly chosen fields 2-3 mm distal to the lesion were qualitatively analyzed by light microscopy using 1-micrometer-thick toluidine blue stained cross sections and photographic images were captured.

[2] = test system: SHRSP rats which had sustained middle cerebral artery occlusion (MCAO); assay: In vivo assay on cortical injury following MCAO in SHRSP rats
Text: A colony of SHRSP rats is bred at Johns Hopkins School of Medicine from three pairs of male and female rats obtained from the National Institutes of Health (Laboratory, Sciences Section, Veterinary Resources Program, National Center for Research Resources, Bethesda, Md.). All rats are kept in a virus-free environment and maintained on regular diet (NIH 31, Zeigler Bros, Inc.) with water ad libitum. All groups of rats are allowed to eat and drink water until the morning of the experiment.
Transient occlusion of the middle cerebral artery (MCA) is induced by advancing a 4-0 surgical nylon suture into the internal carotid artery (ICA) to block the origin of the MCA (Koizumi, 1986; Longa, 1989; Chen, 1992). The rats are anesthetized with 4% halothane, and maintained with 1.0% to 1.5% halothane in air enriched oxygen using a face mask. Rectal temperature is maintained at 37.0±0.5° C. throughout the surgical procedure using a heating lamp. The right femoral artery is cannulated for measuring blood gases (pH, oxygen tension [PO2], carbon dioxide tension [PCO2]) before and during ischemia, for monitoring blood pressure during the surgery. The right common carotid artery (CCA) is exposed through a midline incision; a self-retraining retractor is positioned between the digastric and mastoid muscles, and the omohyoid muscle is divided. The right external carotid artery (ECA) is dissected and ligated. The occipital artery branch of the ECA is then isolated and coagulated. Next, the right internal carotid artery (ICA) is isolated until the pterygopalatine artery is exposed, and carefully separated from the adjacent vagus nerve. The pterygopalatine artery is ligated with 4-0 silk suture close to its origin.
After the CCA is ligated with 4-0 silk suture, a 4-0 silk suture to prevent bleeding from a puncture site, through which a 2.5 cm length of 4-0 monofilament nylon suture (Ethilon), its tip rounded by heating near a electric cautery, is introduced into the ICA lumen. A 6-0 silk suture is tightened around the intraluminal nylon suture at the bifurcation to prevent bleeding, and the stretched sutures at the CCA and the ICA are released. The nylon suture is then gently advanced as far as 20 mm.
Anesthesia is terminated after 10 minutes of MCA occlusion in both groups, and the rats were awakened 5 minutes thereafter. After 2 hours of ischemia, anesthesia is reanesthetized, and reperfusion is performed by withdrawing the intraluminal nylon suture until the distal tip became visible at the origin of the ICA.
Arterial pH and PaCO2, and partial pressure of oxygen (PaO2) are measured with a self-calibrating Radiometer electrode system (ABL 3; Copenhagen, Denmark). Hemoglobin and arterial oxygen content are measured with a hemoximeter (Radiometer, Model OSM3; Copenhagen, Denmark). Blood glucose is measured with a glucose analyzer (model 2300A, Yellow Springs Instruments, Yellow Springs, Ohio).
Each group is exposed to 2 hours of right MCA occlusion and 22 hours of reperfusion. All variables but the rectal temperature are measured at baseline, at 15 minutes and 45 minutes of right MCA occlusion. The rectal temperature is measured at baseline, at 0 and 15 min of MCA occlusion, and at 0 and 22 hours of reperfusion.

[3] = test system: stroke-induced rise in brain glutamate levels; assay: In vivo assay on stroke-induced rise in brain glutamate levels (microdialysis); set-up: species or system Sprague Dawley rats; conditions: rat
Text: Male Sprague Dawley rats (270-330 g, n=5-6 per group) were implanted with concentric microdialysis probes similar to previously described procedures (Britton et al., J. Neurochem., Vol. 67, pp. 324-329 (1996)). In brief, under halothane anaesthesia, probes (constructed in-house using Cuprophane capillary membrane; 10K mw cut off; 2 mm dialyzing length) were implanted into the frontal cortex (AP=+3.5; ML=3; DIV=3), caudate nucleus (AP=0; ML=3; DV=6.6), and parietal cortex (AP=−2; ML=5; DV=3) (coordinates in mm relative to bregma and dura, respectively), regions believed to represent core and penumbral areas of ischemia-induced injury. Glutamate levels in dialysate were determined using precolumn o-phthaldialdehyde derivatization, followed by HPLC with fluorometric detection.
Following a 60 minute stabilization period, dialysis samples were collected every 20 minutes. After collecting 3 baseline samples, the rats were anaesthetized with halothane and subjected to temporary ischemia using the filament method of MCAO (Britton et al., Life Sciences, Vol. 60, No. 20, pp. 1729-1740 (1997)). In brief, the right external carotid artery (ECA) was exposed and its branches coagulated. A 3-0 monofilament nylon suture was introduced into the internal carotid artery via an arteriotomy in the ECA and advanced until it lodged in the proximal region of the anterior cerebral artery, thus occluding the origin of the MCA. The endovascular suture was retracted to allow reperfusion 2 hours after occlusion.
Body temperature was maintained normothermic throughout stroke surgery and reperfusion procedures. […] Dialysis samples were collected every 20 minutes from unanesthetized rats.

[4] = 10 mg/kg followed by 2 mg/kg/hr for 1 hour
[5] = 100 mg/kg followed by 20 mg/kg/hr for one hour

O=C(O)CCC(CP(=O)(O)O)C(=O)O (stereo not drawn) [2-(phosphonomethyl)pentanedioic acid]
% Toxicity (cortical cell cultures; NAAG 3 μM): −4.71 (n = 1) %
% Toxicity (cortical cell cultures; NAAG 10 μM): −3.08 ± 0.81 (n = 3) %
% Toxicity (cortical cell cultures; NAAG 30 μM): −4.81 ± 1.13 (n = 3) %
% Toxicity (cortical cell cultures; NAAG 100 μM): −2.87 ± 0.78 (n = 3) %
% Toxicity (cortical cell cultures; NAAG 300 μM): −2.09 ± 0.48 (n = 3) %
% Toxicity (cortical cell cultures; NAAG 1 mM): 0.26 ± 1.11 (n = 3) %
% Toxicity (cortical cell cultures; NAAG 3 mM): 16.83 ± 8.76 (n = 3) %
# of myelinated lamellae (ave. + SEM) [1]: 16.53 ± 0.65
% increase of myelinated lamellae over vehicle [1]: 20%
Cortical Injury Volume (% injury) ± S.E.M. [2, 4]: 29.14 ± 7.68 (n = 10) % injury
Cortical Injury Volume (mm^3) ± S.E.M. [2, 4]: 135.00 ± 32.18 (n = 10) mm^3
Cortical Protection (% protection) [2, 4]: 27%
Cortical Injury Volume (% injury) ± S.E.M. [2, 5]: 13.98 ± 6.64 (n = 10) % injury
Cortical Injury Volume (mm^3) ± S.E.M. [2, 5]: 65.23 ± 32.18 (n = 10) mm^3
Cortical Protection (% protection) [2, 5]: 65%
concurrent glutamate changes in the parietal cortex [3]: completely prevented
glutamate in the frontal cortex [3]: no subsequent difference
stroke-induced extracellular glutamate increases in the striatum [3]: significantly attenuated
